Assay: Rat PK study #4 (Compound A PO 0.2 and 1.0 mg/kg, propylene glycol formulation)
Format: in vivo, Lewis rats
Details: 1 mg/kg and 10 mg/kg doses, rats

Cn1cc(-c2ccccc2)c(-c2cn(C)c(=O)c3[nH]c(-c4cnn(C(F)(F)F)c4)cc23)cc1=O [Compound A, 6-methyl-4-(1-methyl-2-oxo-5-phenyl-1,2-dihydropyridin-4-yl)-2-(1-(trifluoromethyl)-1H-pyrazol-4-yl)-1,6-dihydro-7H-pyrrolo[2,3-c]pyridin-7-one]
duration of exposure above the free EC50 BD2 BRD4: 24 h

Reference: US20260217701A1, “SELECTIVE BET INHIBITORS AND USES THEREOF” (Tay Therapeutics Limited, priority 2022, published 2026)
